Numbered stars: 1 amine (or outer) side, 2 acyl side, 3 side chain; on linkers, the order of the positions; unused ones are H or OH. Bridge positions count the residues as written; N and C are the ends. Side chains are listed from the residue outwards. Peptide text beside a SMILES is read from it. * marks the point of attachment. C20 diacid = O=C(O)CCCCCCCCCCCCCCCCCCC(=O)*; γGlu = O=C(O)[C@H](CCC(=O)[*:2])N[*:1]; AEEA = NCCOCCOCC(=O)O
What was measured:
[1] = ASSAY (IX) pK, determination of T½ in mini-pig; assay type: in vivo; conditions: male, Göttingen, minipig, plasma, iv, 2 nmol/kg
Male Wistar rats = test: ASSAY (XII) effect from single subcutaneous administration on plasma calcium in rats; assay type: in vivo, rat; conditions: for Plasma calcium red (%) 0-12 h (maximal): single s.c., compared to vehicle
Method: Assay (XII)—Effect from Single Subcutaneous Administration of Analogue on Plasma Calcium in Rats
Male Wistar rats (Taconic Europe, ˜250 g at test date) were acclimatized to handling prior to the study. Rats were divided in groups of five and subcutaneously dosed with test compound at time=0. At time T=−15 min; 1 h, 2 h, 4 h, 7 h, 12 h, and 24 h a blood sample was obtained and heparin stabilized plasma was analysed for total calcium (Cobas, Hitachi). Data are illustrated in graphs as mean±SEM.

Male Sprague-Dawley rats = test: ASSAY (XI) single subcutaneous administration, food intake monitored for 48 hours in rats; assay type: in vivo, rat; conditions: for Food intake red (%) 0-24 h / Food intake red (%) 24-48 h: single s.c., compared to vehicle
Description: Assay (XI)—Effect from Single Subcutaneous Administration of Analogue on Plasma Calcium in Rats
Male Sprague-Dawley rats (Taconic Europe, ˜250 g at test date) were acclimatized to reversed day light cycle (lights on from 10 PM to 10 AM) and single housing in online food intake monitoring system (Ellegaard MBRose, Denmark) prior to study start. […] Data are illustrated in graphs as mean±SEM.

SMILES | half-life [1] [h] | Plasma calcium red (%) 0-12 h (maximal) (Male Wistar rats; 30 nmol/kg) [%] | suppression of plasma calcium level relative to vehicle (Male Wistar rats; single subcutaneous administration, increasing doses (all doses tested), monitored over 24 hours) | Food intake red (%) 0-24 h (Male Sprague-Dawley rats; 3 nmol/kg) [%] | Food intake red (%) 24-48 h (Male Sprague-Dawley rats; 3 nmol/kg) [%] | Food intake red (%) 0-24 h (Male Sprague-Dawley rats; 30 nmol/kg) [%] | Food intake red (%) 24-48 h (Male Sprague-Dawley rats; 30 nmol/kg) [%] | food intake monitored over 48 hours (Male Sprague-Dawley rats; single subcutaneous administration, 30 nmol/kg, versus vehicle) | Plasma calcium red (%) 0-12 h (maximal) (Male Wistar rats; 10 nmol/kg) [%]
CC[C@H](C)[C@H](NC(=O)[C@H](C)NC(=O)CNC(=O)[C@H](Cc1ccccc1)NC(=O)[C@H](CC(N)=O)NC(=O)[C@@H]1CCCN1C(=O)[C@H](CO)NC(=O)[C@H](CO)NC(=O)[C@H](Cc1c[nH]cn1)NC(=O)[C@H](CCCNC(=N)N)NC(=O)[C@H](CC(C)C)NC(=O)[C@H](Cc1ccccc1)NC(=O)[C@H](CC(=O)O)NC(=O)[C@H](C)NC(=O)[C@H](CC(C)C)NC(=O)[C@H](CCCNC(=N)N)NC(=O)[C@H](CCC(N)=O)NC(=O)[C@@H](NC(=O)[C@H](C)NC(=O)[C@@H]1CSSC[C@H](NC(=O)[C@@H](N)CCCCNC(=O)CC[C@H](NC(=O)CC[C@H](NC(=O)CCCCCCCCCCCCCCCCCCC(=O)O)C(=O)O)C(=O)O)C(=O)N[C@@H](CC(N)=O)C(=O)N[C@@H]([C@@H](C)O)C(=O)N[C@@H](C)C(=O)N[C@@H]([C@@H](C)O)C(=O)N1)[C@@H](C)O)C(=O)N1CCC[C@H]1C(=O)N[C@@H](CO)C(=O)N[C@@H](CO)C(=O)N[C@H](C(=O)N[C@@H](CC(N)=O)C(=O)N[C@H](C(=O)NCC(=O)N[C@@H](CO)C(=O)N[C@@H](CCCNC(=N)N)C(=O)N[C@H](C(=O)N[C@@H](Cc1ccc(O)cc1)C(N)=O)[C@@H](C)O)C(C)C)[C@@H](C)O [Example 52, N-ε-1-{(S)-4-carboxy-4-[(S)-4-carboxy-4-(19-carboxynonadecanoylamino)butyrylamino]butyryl}-[Asp14,Arg17,Pro21,Pro27,Arg35]-human amylin] | 99.5 | 12 | None of the doses trigger a notable suppression of the calcium level | 25 | 15 | 63 | 50 | reduces food intake | –
CC[C@H](C)[C@H](NC(=O)[C@H](C)NC(=O)CNC(=O)[C@H](Cc1ccccc1)NC(=O)[C@H](CC(N)=O)NC(=O)[C@@H]1CCCN1C(=O)[C@H](CO)NC(=O)[C@H](CO)NC(=O)[C@H](Cc1c[nH]cn1)NC(=O)[C@H](CCCNC(=N)N)NC(=O)[C@H](CC(C)C)NC(=O)[C@H](Cc1ccccc1)NC(=O)[C@H](CC(N)=O)NC(=O)[C@H](C)NC(=O)[C@H](CC(C)C)NC(=O)[C@H](CCCNC(=N)N)NC(=O)[C@H](CCC(N)=O)NC(=O)[C@@H](NC(=O)[C@H](C)NC(=O)[C@@H]1CSSC[C@H](NC(=O)[C@@H](N)CCCCNC(=O)COCCOCCNC(=O)CC[C@H](NC(=O)CCCCCCCCCCCCCCCCCCC(=O)O)C(=O)O)C(=O)N[C@@H](CC(N)=O)C(=O)N[C@@H]([C@@H](C)O)C(=O)N[C@@H](C)C(=O)N[C@@H]([C@@H](C)O)C(=O)N1)[C@@H](C)O)C(=O)N1CCC[C@H]1C(=O)N[C@@H](CO)C(=O)N[C@@H](CO)C(=O)N[C@H](C(=O)N[C@@H](CC(N)=O)C(=O)N[C@H](C(=O)NCC(=O)N[C@@H](Cc1c[nH]cn1)C(=O)N[C@@H](CC(N)=O)C(=O)N[C@H](C(=O)N[C@@H](Cc1ccc(O)cc1)C(N)=O)[C@@H](C)O)C(C)C)[C@@H](C)O [Example 76] (H-K([AEEA-γGlu-C20 diacid])CNTATCATQRLANFLRHSSPNFGAIPSSTNVGHNTY-NH2; disulfide 2-7; N-terminus assumed) | 76 | – | – | – | – | – | – | – | –
CC[C@H](C)[C@H](NC(=O)[C@H](C)NC(=O)CNC(=O)[C@H](Cc1ccccc1)NC(=O)[C@H](CC(N)=O)NC(=O)[C@@H]1CCCN1C(=O)[C@H](CO)NC(=O)[C@H](CO)NC(=O)[C@H](Cc1c[nH]cn1)NC(=O)[C@H](CCCNC(=N)N)NC(=O)[C@H](CC(C)C)NC(=O)[C@H](Cc1ccccc1)NC(=O)[C@H](CC(N)=O)NC(=O)[C@H](C)NC(=O)[C@H](CC(C)C)NC(=O)[C@H](CCCNC(=N)N)NC(=O)[C@H](CCC(N)=O)NC(=O)[C@@H](NC(=O)[C@H](C)NC(=O)[C@@H]1CSSC[C@H](NC(=O)[C@@H](N)CCCCNC(=O)CC[C@H](NC(=O)CCCCCCCCCCCCCCCCCCC(=O)O)C(=O)O)C(=O)N[C@@H](CC(N)=O)C(=O)N[C@@H]([C@@H](C)O)C(=O)N[C@@H](C)C(=O)N[C@@H]([C@@H](C)O)C(=O)N1)[C@@H](C)O)C(=O)N1CCC[C@H]1C(=O)N[C@@H](CO)C(=O)N[C@@H](CO)C(=O)N[C@H](C(=O)N[C@@H](CC(N)=O)C(=O)N[C@H](C(=O)NCC(=O)N[C@@H](Cc1c[nH]cn1)C(=O)N[C@@H](CC(N)=O)C(=O)N[C@H](C(=O)N[C@@H](Cc1ccc(O)cc1)C(N)=O)[C@@H](C)O)C(C)C)[C@@H](C)O [Example 77] | 81 | – | – | – | – | – | – | – | –
CC[C@H](C)[C@H](NC(=O)[C@H](C)NC(=O)CNC(=O)[C@H](Cc1ccccc1)NC(=O)[C@H](CC(N)=O)NC(=O)[C@@H]1CCCN1C(=O)[C@H](CO)NC(=O)[C@H](CO)NC(=O)[C@H](Cc1c[nH]cn1)NC(=O)[C@H](CCCNC(=N)N)NC(=O)[C@H](CC(C)C)NC(=O)[C@H](Cc1ccccc1)NC(=O)[C@H](Cc1c[nH]cn1)NC(=O)[C@H](C)NC(=O)[C@H](CC(C)C)NC(=O)[C@H](CCCNC(=N)N)NC(=O)[C@H](CCC(N)=O)NC(=O)[C@@H](NC(=O)[C@H](C)NC(=O)[C@@H]1CSSC[C@H](NC(=O)[C@@H](N)CCCCNC(=O)CC[C@H](NC(=O)CCCCCCCCCCCCCCCCCCC(=O)O)C(=O)O)C(=O)N[C@@H](CC(N)=O)C(=O)N[C@@H]([C@@H](C)O)C(=O)N[C@@H](C)C(=O)N[C@@H]([C@@H](C)O)C(=O)N1)[C@@H](C)O)C(=O)N1CCC[C@H]1C(=O)N[C@@H](CO)C(=O)N[C@@H](CO)C(=O)N[C@H](C(=O)N[C@@H](CC(N)=O)C(=O)N[C@H](C(=O)NCC(=O)N[C@@H](CCCNC(=N)N)C(=O)N[C@@H](CC(N)=O)C(=O)N[C@H](C(=O)N[C@@H](Cc1ccc(O)cc1)C(N)=O)[C@@H](C)O)C(C)C)[C@@H](C)O [Example 85] (H-K([γGlu-C20 diacid])CNTATCATQRLAHFLRHSSPNFGAIPSSTNVGRNTY-NH2; disulfide 2-7 (inferred); N-terminus assumed) | 85 | – | – | – | – | – | – | – | –
CC[C@H](C)[C@H](NC(=O)[C@H](C)NC(=O)CNC(=O)[C@H](Cc1ccccc1)NC(=O)[C@H](CC(N)=O)NC(=O)[C@@H]1CCCN1C(=O)[C@H](CO)NC(=O)[C@H](CO)NC(=O)[C@H](Cc1c[nH]cn1)NC(=O)[C@H](CCCNC(=N)N)NC(=O)[C@H](CC(C)C)NC(=O)[C@H](Cc1ccccc1)NC(=O)[C@H](CCC(=O)O)NC(=O)[C@H](C)NC(=O)[C@H](CC(C)C)NC(=O)[C@H](CCCNC(=N)N)NC(=O)[C@H](CCC(N)=O)NC(=O)[C@@H](NC(=O)[C@H](C)NC(=O)[C@@H]1CSSC[C@H](NC(=O)[C@@H](N)CCCCNC(=O)CC[C@H](NC(=O)CCCCCCCCCCCCCCCCCCC(=O)O)C(=O)O)C(=O)N[C@@H](CC(N)=O)C(=O)N[C@@H]([C@@H](C)O)C(=O)N[C@@H](C)C(=O)N[C@@H]([C@@H](C)O)C(=O)N1)[C@@H](C)O)C(=O)N1CCC[C@H]1C(=O)N[C@@H](CO)C(=O)N[C@@H](CO)C(=O)N[C@H](C(=O)N[C@@H](CC(N)=O)C(=O)N[C@H](C(=O)NCC(=O)N1CCC[C@H]1C(=O)N[C@@H](Cc1c[nH]cn1)C(=O)N[C@H](C(=O)N[C@@H](Cc1ccc(O)cc1)C(N)=O)[C@@H](C)O)C(C)C)[C@@H](C)O [Example 118] (H-K([γGlu-C20 diacid])CNTATCATQRLAEFLRHSSPNFGAIPSSTNVGPHTY-NH2; disulfide 2-7) | – | 26 | – | 43 | 1 | 77 | 30 | – | –
CC[C@H](C)[C@H](NC(=O)[C@H](C)NC(=O)CNC(=O)[C@H](Cc1ccccc1)NC(=O)[C@H](CC(N)=O)NC(=O)[C@@H]1CCCN1C(=O)[C@H](CO)NC(=O)[C@H](CO)NC(=O)[C@H](Cc1c[nH]cn1)NC(=O)[C@H](CCCNC(=N)N)NC(=O)[C@H](CC(C)C)NC(=O)[C@H](Cc1ccccc1)NC(=O)[C@H](CCC(=O)O)NC(=O)[C@H](C)NC(=O)[C@H](CC(C)C)NC(=O)[C@H](CCCNC(=N)N)NC(=O)[C@H](CCC(N)=O)NC(=O)[C@@H](NC(=O)[C@H](C)NC(=O)[C@@H]1CSSC[C@H](NC(=O)[C@@H](N)CCCCNC(=O)CC[C@H](NC(=O)CC[C@H](NC(=O)CCCCCCCCCCCCCCCCCCC(=O)O)C(=O)O)C(=O)O)C(=O)N[C@@H](CC(N)=O)C(=O)N[C@@H]([C@@H](C)O)C(=O)N[C@@H](C)C(=O)N[C@@H]([C@@H](C)O)C(=O)N1)[C@@H](C)O)C(=O)N1CCC[C@H]1C(=O)N[C@@H](CO)C(=O)N[C@@H](CO)C(=O)N[C@H](C(=O)N[C@@H](CC(N)=O)C(=O)N[C@H](C(=O)NCC(=O)N1CCC[C@H]1C(=O)N[C@@H](Cc1c[nH]cn1)C(=O)N[C@H](C(=O)N[C@@H](Cc1ccc(O)cc1)C(N)=O)[C@@H](C)O)C(C)C)[C@@H](C)O [Example 124] (H-K([γGlu-γGlu-C20 diacid])CNTATCATQRLAEFLRHSSPNFGAIPSSTNVGPHTY-NH2; disulfide 2-7 (inferred)) | – | 11 | – | – | – | 73 | 38 | – | 3
